We go through three compounds from patent US20240050344A1, “Methods of Enhancing Natural Defense in the Oral Cavity” (Colgate-Palmolive Company, priority 2021, published 2024).

One test concerns U937. Nature of the test: Phagocytosis assay with Latex Beads-Rabbit IgG-FITC, U937 cells. Type of test: cell-based. As to conditions: FIG. 6. An excerpt: (§1) Phagocytosis is a very important physiological process which is characterized by the ingestion of foreign particles and killing of microorganisms by phagocytic leukocytes (monocytes, macrophages, granulocytes). The phagocytic leukocytes are part of a first line of natural defense against potential pathogens. Phagocytotic active of phagocytes can be measured using a phagocytosis assay. The phagocytosis assay uses fluorescently-opsonized latex beads which are contacted with phagocytic cells. After maintaining the beads in contact with the cell, fluorescent reading of cells is used to assess the degree of phagocytosis. Thus, the degree of phagocytosis from cells treated with different compounds can be compared quantifiably.
EDTA chelates Zinc. Phagocytotic immune cells were contacted with fluorescently-opsonized latex beads in the presence of ZnCl2 and EDTA to determine the effect addition of zinc-chelating EDTA changes the effects of zinc on the phagocytotic activity of phagocytotic immune cells.
(§2) 96-well plates were seeded with either phagocytic immune cells THP1 (cat #TIB202, ATCC) and U937 (cat #CRL-1593.2, ATCC) at 5×10^4 cells/well in 100 μl of RPMI-1640 medium containing 10 ng/ml phorbol myristic acid (PMA, Sigma) for 48 hr in a CO2 incubator at 37° C.
(§3) Medium was changed with 100 μl/ml of RPMI-1640 (Item #500290, Cayman). U937 cells were treated with ZnCl2 or ZnCl2 and EDTA. THP1 cells were treated with ZnO or ZnO plus EDTA. 10 μl of the Latex Beads-Rabbit IgG-FITC solution were added to each well. Plates were mixed gently and cells were incubated in a CO2 incubator at 37° C. for 24-48 hrs.
(§4) After incubation, plates were centrifuged for 5 minutes at 400×g at room temperature. Supernatant was carefully aspirated. 50 μl of Trypan blue solution was added to each well and plates were incubated for 1-2 mins at room temperature. Plates were centrifuged for 5 minutes at 400×g at room temperature. Supernatant was carefully aspirated. Fluorescent intensity was read using in plate reader at excitation 485/emission 535 nm.

The next test concerns THP1. The experiment in a line: Phagocytosis assay with Latex Beads-Rabbit IgG-FITC, THP1 cells. In kind it is cell-based. As to conditions: FIG. 7; for phagocytosis activity: versus EDTA control.
Source text: as §1, §2, §3, §4

On to `O=C(O)CN(CCN(CC(=O)O)CC(=O)O)CC(=O)O` [EDTA], for which the phagocytosis activity result with U937 (EDTA alone versus untreated control) is given as “No difference in phagocytosis activity”.

With `[O]=[Zn]` [ZnO, zinc oxide], in the test with THP1 (6.25 μM compared with 12.5 μM and 25 μM), the “phagocytosis activity, comparison among the tested ZnO amounts” value is listed as “greatest increase”. In addition, the phagocytosis activity result in the test with THP1 (6.25 μM), in the test with THP1 (12.5 μM) and in the test with THP1 (25 μM) was “more phagocytosis activity than EDTA control cells” each time.

Regarding `[Cl-].[Cl-].[Zn+2]` [ZnCl2], the phagocytosis activity entry is listed as “more phagocytosis activity than untreated control cells” in the test on U937 (12.5 μM, versus untreated control) and “more phagocytosis activity than untreated control cells” in the test on U937 (25 μM, versus untreated control).
